Data published in PubChem BioAssay AID504438 (Sanford-Burnham Center for Chemical Genomics, 2011).
The source made the active and inactive calls.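 The calls were made as follows: active = IC50 below 20 µM in the dose response test; inactive = the rest.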

Molecular target: Type-1 angiotensin II receptor (Homo sapiens) (UniProt P30556)
Experiment: AGTR1 beta-arrestin recruitment antagonism – cell-based, CHO-K1 AGTR1, luminescence, set 4, selectivity assay for APJ receptor antagonist project, SAR follow-up (AID 504438)
Settings: CHO-K1 AGTR1 beta-arrestin complementation

Sequence of Type-1 angiotensin II receptor (Homo sapiens) (P30556 whole entry, looked up): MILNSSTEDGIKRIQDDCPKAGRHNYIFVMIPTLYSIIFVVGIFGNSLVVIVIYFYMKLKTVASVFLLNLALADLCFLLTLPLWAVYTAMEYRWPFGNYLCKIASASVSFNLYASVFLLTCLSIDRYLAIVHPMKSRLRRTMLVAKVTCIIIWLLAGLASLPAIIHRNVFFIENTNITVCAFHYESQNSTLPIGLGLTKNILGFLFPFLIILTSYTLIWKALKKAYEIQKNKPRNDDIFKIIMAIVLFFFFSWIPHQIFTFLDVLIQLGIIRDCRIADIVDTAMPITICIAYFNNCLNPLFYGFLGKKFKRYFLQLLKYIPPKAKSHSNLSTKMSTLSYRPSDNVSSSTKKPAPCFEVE

Question: For `Cc1ccnc(SCc2cc(=O)c(NC(=O)c3ccc([N+](=O)[O-])cc3)co2)n1`, which IC50 is on record?
Answer: Its IC50 is > 79 µM (inactive).

Question: For `Cc1ccc(SCc2cc(=O)c(OC(=O)c3ccc(Cl)c([N+](=O)[O-])c3)co2)cc1`, which IC50 is on record?
Answer: The IC50 was > 79 µM (inactive).

Question: How did the IC50 turn out when `COc1ccc(SCc2cc(=O)c(OC(=O)c3ccc(Cl)c([N+](=O)[O-])c3)co2)cc1` was run?
Answer: Its IC50 is > 79 µM (inactive).

Question: `Cc1cc(C)nc(SCc2cc(=O)c(OC(=O)c3ccc(-c4nccs4)cc3)co2)n1` was tested. Which IC50 did it give?
Answer: The IC50 was > 79 µM (inactive).

Question: `O=C(Oc1coc(CN2CCOCC2)cc1=O)c1ccccc1` was tested. Which IC50 did it give?
Answer: The IC50 was > 79 µM (inactive).

Question: With `O=C(Oc1coc(CSc2ccc(OC(F)(F)F)cc2)cc1=O)c1ccc(Cl)c([N+](=O)[O-])c1` as the molecule, how does the IC50 read?
Answer: Its IC50 is > 79 µM (inactive).

Question: Which IC50 does the source give for `O=C(Oc1coc(CN2CCOCC2)cc1=O)c1ccc([N+](=O)[O-])cc1` here?
Answer: Its IC50 is > 79 µM (inactive).

Question: Which IC50 does the source give for `O=C(Oc1coc(CSc2ccc(Cl)cc2)cc1=O)c1ccc(Cl)c([N+](=O)[O-])c1` here?
Answer: The IC50 was > 79 µM (inactive).
